US9808003B2, “Herbicidally active 2-(substituted-phenyl)-cyclopentane-1,3-dione compounds and derivatives thereof” (Syngenta Limited, priority 2013, dated 2017)

How the values were obtained:
Type in all cases: in vivo
Spring Wheat “Freya” = assay: Test 1B glasshouse assay, post-emergence herbicidal activity against cereal crops
Avena fatua (AVEFA) = assay: Test 1B glasshouse assay, post-emergence herbicidal activity against grassy weeds; conditions: 14 DAA
Procedure: (§1) Biological Example 1B tests the herbicidal activity of“technical” compounds (i.e. compounds not previously formulated before the test), as the herbicides under test.
(§2) An “instant formulation”, known as the “IF50”, containing 50 g/liter (i.e. 5% w/v) of the “technical” (i.e. unformulated) active ingredient (i.e. the herbicide under test), is prepared by dissolving the active ingredient in a mixture of organic solvents and emulsifier, details of which are provided in the Table below.
(§3) This IF50 is mixed with a small, variable amount of acetone to aid dissolution, before addition of a 0.5% v/v aqueous solution of the adjuvant Adigor™ (an adjuvant containing rapeseed oil methyl ester, ethoxylated alcohols, and a mixture of heavy aromatic hydrocarbons, e.g. available from Syngenta), as the aqueous diluent, to form an aqueous spray solution which contains a predetermined concentration of the active ingredient (which varies depending on the application rate of the active ingredient to the plants) and 0.5% v/v of the adjuvant Adigor™. This aqueous spray solution is suitable for spraying onto plants.
(§4) Seeds of a variety of test species are sown in standard soil in pots. After cultivation for 14 days under controlled conditions in a glasshouse (at 22/16° C., day/night; 16 hours light; 65% humidity), the plants are sprayed post-emergence with the above-mentioned aqueous spray solution containing inter alia the “technical” active ingredient (i.e. the herbicide under test) and the adjuvant Adigor™.
(§5) The test plants are then grown on under controlled conditions in the glasshouse (at 22/16° C., day/night; 16 hours light; 65% humidity) and are watered twice daily. 14 days after application of the test herbicide, the test is evaluated visually for percentage phytotoxicity to the plant (where 100%=total damage to plant; 0%=no damage to plant).
(§6) More specifically, post-emergence herbicidal activity (phytotoxicity) data, on certain tested grassy monocotyledonous weeds (and/or plants of the type Gramineae) and cereal crops in the glasshouse, are measured 14 days after application of the herbicide (14 DAA), typically for inter alia one or more of the following application rates: • (a) a post-emergence application rate of 60 g/ha of the test herbicide with or without 50 g/ha of cloquintocet-mexyl safener, and • (b) a post-emergence application rate of 90 g/ha of the test herbicide with 50 g/ha of cloquintocet-mexyl safener, and • (c) a post-emergence application rate of 120 g/ha of the test herbicide with 50 g/ha of cloquintocet-mexyl safener.
(§7) The cloquintocet-mexyl, when used, is present in the formulation containing the herbicide under test dissolved in acetone plus IF50.
(§8) The range of herbicide application rates tested sometimes includes application rates other than those shown above, and the rates can vary depending on the herbicide under test.
(§9) Herbicidal activity (phytotoxicity) is evaluated visually, and an assessed percentage phytotoxicity score is given for each herbicidal application on each plant species (with 100%=total damage to plant; 0%=no damage to plant; the assessment is recorded in increments of 1%). Two replicates are made for each experiment, and the mean herbicidal activity (phytotoxicity) data is reported.
(§10) For compounds A34, A98, A99, A87, A100, A101, A89, A120, A120A, A120B, A23, A127, A128, A89, A112 and A113 the tested weeds were as follows: Avena fatua (AVEFA), Lolium multiflorum (LOLMU), Setaria viridis (SETVI), Poa annua (POAAN), Alopecurus myosuroides (ALOMY). All five of these are grassy monocotyledonous weeds. Except for SETVI, these are all “cool-season” grassy monocotyledonous weeds.

[1] = system: Alopecurus myosuroides (ALOMY); assay: as above; conditions: 14 DAA
Procedure: as §1, §2, §3, §4, §5, §6, §7, §8, §9, §10

Setaria viridis (SETVI) = assay: as above; conditions: 14 DAA
Procedure: as §1, §2, §3, §4, §5, §6, §7, §8, §9, §10

Poa annua (POAAN) = assay: as above; conditions: 14 DAA
Procedure: as §1, §2, §3, §4, §5, §6, §7, §8, §9, §10

[2] = system: Lolium multiflorum (LOLMU); assay: as above; conditions: 14 DAA
Procedure: as §1, §2, §3, §4, §5, §6, §7, §8, §9, §10

[3] = system: Spring Barley “Harrington”; assay: Test 1B glasshouse assay, post-emergence herbicidal activity against cereal crops
Procedure: as §1, §2, §3, §4, §5, §6, §7, §8, §9

Winter Barley “Suzuka” = assay: as above
Procedure: as §1, §2, §3, §4, §5, §6, §7, §8, §9

Winter Wheat “Hereward” = assay: as above
Procedure: as §1, §2, §3, §4, §5, §6, §7, §8, §9

[4] = herbicide 30 g/ha, cloquintocet-mexyl 50 g/ha
[5] = herbicide 45 g/ha, cloquintocet-mexyl 50 g/ha
[6] = herbicide 60 g/ha, cloquintocet-mexyl 0 g/ha
[7] = herbicide 60 g/ha, cloquintocet-mexyl 50 g/ha
[8] = 30 g/ha herbicide, 50 g/ha cloquintocet-mexyl
[9] = 45 g/ha herbicide, 50 g/ha cloquintocet-mexyl
[10] = 60 g/ha herbicide, 0 g/ha cloquintocet-mexyl
[11] = 60 g/ha herbicide, 50 g/ha cloquintocet-mexyl

Row | SMILES | Percentage Phytotoxicity Spring Wheat “Freya” (Spring Wheat “Freya”; [4]) [%] | Percentage Phytotoxicity Spring Wheat “Freya” (Spring Wheat “Freya”; [5]) [%] | Percentage Phytotoxicity Spring Wheat “Freya” (Spring Wheat “Freya”; [6]) [%] | Percentage Phytotoxicity Spring Wheat “Freya” (Spring Wheat “Freya”; [7]) [%] | Post-emergence herbicidal activity, percentage phytotoxicity, AVEFA (Avena fatua (AVEFA); [8]) [%] | Post-emergence herbicidal activity, percentage phytotoxicity, AVEFA (Avena fatua (AVEFA); [9]) [%] | Post-emergence herbicidal activity, percentage phytotoxicity, AVEFA (Avena fatua (AVEFA); [10]) [%] | Post-emergence herbicidal activity, percentage phytotoxicity, AVEFA (Avena fatua (AVEFA); [11]) [%] | Post-emergence herbicidal activity, percentage phytotoxicity, ALOMY [1, 8] [%] | Post-emergence herbicidal activity, percentage phytotoxicity, ALOMY [1, 9] [%] | Post-emergence herbicidal activity, percentage phytotoxicity, ALOMY [1, 10] [%] | Post-emergence herbicidal activity, percentage phytotoxicity, ALOMY [1, 11] [%] | Post-emergence herbicidal activity, percentage phytotoxicity, SETVI (Setaria viridis (SETVI); [8]) [%] | Post-emergence herbicidal activity, percentage phytotoxicity, SETVI (Setaria viridis (SETVI); [9]) [%] | Post-emergence herbicidal activity, percentage phytotoxicity, SETVI (Setaria viridis (SETVI); [10]) [%] | Post-emergence herbicidal activity, percentage phytotoxicity, SETVI (Setaria viridis (SETVI); [11]) [%] | Post-emergence herbicidal activity, percentage phytotoxicity, POAAN (Poa annua (POAAN); [8]) [%] | Post-emergence herbicidal activity, percentage phytotoxicity, POAAN (Poa annua (POAAN); [9]) [%] | Post-emergence herbicidal activity, percentage phytotoxicity, POAAN (Poa annua (POAAN); [10]) [%] | Post-emergence herbicidal activity, percentage phytotoxicity, POAAN (Poa annua (POAAN); [11]) [%] | other results
1 | Cc1cc(C)c(C2C(=O)C[C@@H](CCNC(=O)c3cccc(F)n3)C2=O)c(C)c1 (stereo partly drawn) [Compound A112] | 25 | 33 | 75 | 50 | 93 | 94 | 98 | 97 | 97 | 97 | 99 | 98 | 100 | 100 | 100 | 100 | 0 | 0 | 40 | 13 | Post-emergence herbicidal activity, percentage phytotoxicity, LOLMU [2, 8]: 98%; Post-emergence herbicidal activity, percentage phytotoxicity, LOLMU [2, 9]: 100%; Post-emergence herbicidal activity, percentage phytotoxicity, LOLMU [2, 10]: 100%; Post-emergence herbicidal activity, percentage phytotoxicity, LOLMU [2, 11]: 100%; Percentage Phytotoxicity Spring Barley “Harrington” [3, 4]: 30%; Percentage Phytotoxicity Spring Barley “Harrington” [3, 5]: 45%; Percentage Phytotoxicity Spring Barley “Harrington” [3, 6]: 93%; Percentage Phytotoxicity Spring Barley “Harrington” [3, 7]: 73%; Percentage Phytotoxicity Winter Barley “Suzuka” (Winter Barley “Suzuka”; [4]): 18%; Percentage Phytotoxicity Winter Barley “Suzuka” (Winter Barley “Suzuka”; [5]): 30%; Percentage Phytotoxicity Winter Barley “Suzuka” (Winter Barley “Suzuka”; [6]): 88%; Percentage Phytotoxicity Winter Barley “Suzuka” (Winter Barley “Suzuka”; [7]): 53%; Percentage Phytotoxicity Winter Wheat “Hereward” (Winter Wheat “Hereward”; [4]): 33%; Percentage Phytotoxicity Winter Wheat “Hereward” (Winter Wheat “Hereward”; [5]): 40%; Percentage Phytotoxicity Winter Wheat “Hereward” (Winter Wheat “Hereward”; [6]): 85%; Percentage Phytotoxicity Winter Wheat “Hereward” (Winter Wheat “Hereward”; [7]): 50%
2 | Cc1cc(C)c(C2C(=O)C[C@H](CCNC(=O)c3cccc(F)n3)C2=O)c(C)c1 (stereo partly drawn) [Compound A113] | 3 | 0 | 7 | 0 | 1 | 3 | 5 | 3 | 0 | 18 | 20 | 25 | 5 | 40 | 53 | 55 | 0 | 0 | 8 | 0 | Post-emergence herbicidal activity, percentage phytotoxicity, LOLMU [2, 8]: 3%; Post-emergence herbicidal activity, percentage phytotoxicity, LOLMU [2, 9]: 20%; Post-emergence herbicidal activity, percentage phytotoxicity, LOLMU [2, 10]: 45%; Post-emergence herbicidal activity, percentage phytotoxicity, LOLMU [2, 11]: 23%; Percentage Phytotoxicity Spring Barley “Harrington” [3, 4]: 0%; Percentage Phytotoxicity Spring Barley “Harrington” [3, 5]: 0%; Percentage Phytotoxicity Spring Barley “Harrington” [3, 6]: 33%; Percentage Phytotoxicity Spring Barley “Harrington” [3, 7]: 8%; Percentage Phytotoxicity Winter Barley “Suzuka” (Winter Barley “Suzuka”; [4]): 0%; Percentage Phytotoxicity Winter Barley “Suzuka” (Winter Barley “Suzuka”; [5]): 0%; Percentage Phytotoxicity Winter Barley “Suzuka” (Winter Barley “Suzuka”; [6]): 28%; Percentage Phytotoxicity Winter Barley “Suzuka” (Winter Barley “Suzuka”; [7]): 0%; Percentage Phytotoxicity Winter Wheat “Hereward” (Winter Wheat “Hereward”; [4]): 0%; Percentage Phytotoxicity Winter Wheat “Hereward” (Winter Wheat “Hereward”; [5]): 0%; Percentage Phytotoxicity Winter Wheat “Hereward” (Winter Wheat “Hereward”; [6]): 3%; Percentage Phytotoxicity Winter Wheat “Hereward” (Winter Wheat “Hereward”; [7]): 0%
3 | Cc1cc(C)c(C2C(=O)C[C@@H](CCNC(=O)c3cc(Cl)ccn3)C2=O)c(C)c1 (stereo partly drawn) [Compound A127] | 0 | 3 | 70 | 5 | 55 | 80 | 85 | 90 | 48 | 63 | 78 | 68 | 97 | 99 | 100 | 100 | 0 | 0 | 0 | 0 | Post-emergence herbicidal activity, percentage phytotoxicity, LOLMU [2, 8]: 65%; Post-emergence herbicidal activity, percentage phytotoxicity, LOLMU [2, 9]: 83%; Post-emergence herbicidal activity, percentage phytotoxicity, LOLMU [2, 10]: 97%; Post-emergence herbicidal activity, percentage phytotoxicity, LOLMU [2, 11]: 83%; Percentage Phytotoxicity Spring Barley “Harrington” [3, 4]: 0%; Percentage Phytotoxicity Spring Barley “Harrington” [3, 5]: 0%; Percentage Phytotoxicity Spring Barley “Harrington” [3, 6]: 83%; Percentage Phytotoxicity Spring Barley “Harrington” [3, 7]: 8%; Percentage Phytotoxicity Winter Barley “Suzuka” (Winter Barley “Suzuka”; [4]): 0%; Percentage Phytotoxicity Winter Barley “Suzuka” (Winter Barley “Suzuka”; [5]): 0%; Percentage Phytotoxicity Winter Barley “Suzuka” (Winter Barley “Suzuka”; [6]): 85%; Percentage Phytotoxicity Winter Barley “Suzuka” (Winter Barley “Suzuka”; [7]): 5%; Percentage Phytotoxicity Winter Wheat “Hereward” (Winter Wheat “Hereward”; [4]): 0%; Percentage Phytotoxicity Winter Wheat “Hereward” (Winter Wheat “Hereward”; [5]): 0%; Percentage Phytotoxicity Winter Wheat “Hereward” (Winter Wheat “Hereward”; [6]): 65%; Percentage Phytotoxicity Winter Wheat “Hereward” (Winter Wheat “Hereward”; [7]): 5%
